Key:
[1] = Apparent thermodynamic functions of mixing; type: physicochemical; conditions: Thm=303.0 K
[2] = Preferential solvation analysis by inverse Kirkwood–Buff integrals; type: physicochemical; conditions: NMP+water, T=298.15 K

Cc1cnc(NC(=O)C2=C(O)c3ccccc3S(=O)(=O)N2C)s1 [Meloxicam, 4-hydroxy-2-methyl-N-(5-methyl-2-thiazolyl)-2H-1,2-benzothiazine-3-carboxamide-1,1-dioxide]
ΔmixG° (apparent Gibbs energy of mixing) ([1]; NMP+water, x1=0.100): 13.24 kJ·mol^–1
ΔmixH° (apparent enthalpy of mixing) ([1]; NMP+water, x1=0.100): 3.14 kJ·mol^–1
ΔmixS° (apparent entropy of mixing) ([1]; NMP+water, x1=0.100): –33.32 J·mol^–1·K^–1
ΔmixG° (apparent Gibbs energy of mixing) ([1]; NMP+water, x1=0.200): 8.18 kJ·mol^–1
ΔmixH° (apparent enthalpy of mixing) ([1]; NMP+water, x1=0.200): 0.11 kJ·mol^–1
ΔmixS° (apparent entropy of mixing) ([1]; NMP+water, x1=0.200): –26.62 J·mol^–1·K^–1
ΔmixG° (apparent Gibbs energy of mixing) ([1]; NMP+water, x1=0.300): 4.22 kJ·mol^–1
ΔmixH° (apparent enthalpy of mixing) ([1]; NMP+water, x1=0.300): –3.31 kJ·mol^–1
ΔmixS° (apparent entropy of mixing) ([1]; NMP+water, x1=0.300): –24.85 J·mol^–1·K^–1
ΔmixG° (apparent Gibbs energy of mixing) ([1]; NMP+water, x1=0.400): 1.15 kJ·mol^–1
ΔmixH° (apparent enthalpy of mixing) ([1]; NMP+water, x1=0.400): –7.38 kJ·mol^–1
ΔmixS° (apparent entropy of mixing) ([1]; NMP+water, x1=0.400): –28.14 J·mol^–1·K^–1
ΔmixG° (apparent Gibbs energy of mixing) ([1]; NMP+water, x1=0.500): –1.16 kJ·mol^–1
ΔmixH° (apparent enthalpy of mixing) ([1]; NMP+water, x1=0.500): –10.00 kJ·mol^–1
ΔmixS° (apparent entropy of mixing) ([1]; NMP+water, x1=0.500): –29.18 J·mol^–1·K^–1
ΔmixG° (apparent Gibbs energy of mixing) ([1]; NMP+water, x1=0.600): –2.74 kJ·mol^–1
ΔmixH° (apparent enthalpy of mixing) ([1]; NMP+water, x1=0.600): –6.91 kJ·mol^–1
ΔmixS° (apparent entropy of mixing) ([1]; NMP+water, x1=0.600): –13.74 J·mol^–1·K^–1
ΔmixG° (apparent Gibbs energy of mixing) ([1]; NMP+water, x1=0.700): –3.72 kJ·mol^–1
ΔmixH° (apparent enthalpy of mixing) ([1]; NMP+water, x1=0.700): 1.42 kJ·mol^–1
ΔmixS° (apparent entropy of mixing) ([1]; NMP+water, x1=0.700): 16.95 J·mol^–1·K^–1
ΔmixG° (apparent Gibbs energy of mixing) ([1]; NMP+water, x1=0.800): –4.65 kJ·mol^–1
ΔmixH° (apparent enthalpy of mixing) ([1]; NMP+water, x1=0.800): –0.68 kJ·mol^–1
ΔmixS° (apparent entropy of mixing) ([1]; NMP+water, x1=0.800): 13.10 J·mol^–1·K^–1
ΔmixG° (apparent Gibbs energy of mixing) ([1]; NMP+water, x1=0.900): –5.56 kJ·mol^–1
ΔmixH° (apparent enthalpy of mixing) ([1]; NMP+water, x1=0.900): –5.29 kJ·mol^–1
ΔmixS° (apparent entropy of mixing) ([1]; NMP+water, x1=0.900): 0.90 J·mol^–1·K^–1
ΔmixG° (apparent Gibbs energy of mixing) ([1]; neat NMP, x1=1.000): –6.17 kJ·mol^–1
ΔmixH° (apparent enthalpy of mixing) ([1]; neat NMP, x1=1.000): –3.73 kJ·mol^–1
ΔmixS° (apparent entropy of mixing) ([1]; neat NMP, x1=1.000): 8.07 J·mol^–1·K^–1
ΔmixG° (apparent Gibbs energy of mixing) ([1]; neat water, x1=0.000): 20.19 kJ·mol^–1
ΔmixH° (apparent enthalpy of mixing) ([1]; neat water, x1=0.000): –17.09 kJ·mol^–1
ΔmixS° (apparent entropy of mixing) ([1]; neat water, x1=0.000): –123.02 J·mol^–1·K^–1
100 δx1,3 (preferential solvation parameter by NMP) ([2]; x1=0.00): 0.00
D (derivative of Gibbs energy of transfer vs x1) ([2]; x1=0.00): –71.31 kJ·mol^–1
G1,3 (Kirkwood–Buff integral) ([2]; x1=0.00): –702.7 cm^3·mol^–1
G2,3 (Kirkwood–Buff integral) ([2]; x1=0.00): –182.2 cm^3·mol^–1
100 δx1,3 (preferential solvation parameter by NMP) ([2]; x1=0.05): –3.21
D (derivative of Gibbs energy of transfer vs x1) ([2]; x1=0.05): –64.29 kJ·mol^–1
G1,3 (Kirkwood–Buff integral) ([2]; x1=0.05): –669.9 cm^3·mol^–1
G2,3 (Kirkwood–Buff integral) ([2]; x1=0.05): –311.3 cm^3·mol^–1
δx1,3 (preferential solvation parameter by NMP) ([2]; x1=0.05): −3.21 × 10^–2
100 δx1,3 (preferential solvation parameter by NMP) ([2]; x1=0.10): –3.19
D (derivative of Gibbs energy of transfer vs x1) ([2]; x1=0.10): –57.63 kJ·mol^–1
G1,3 (Kirkwood–Buff integral) ([2]; x1=0.10): –596.6 cm^3·mol^–1
G2,3 (Kirkwood–Buff integral) ([2]; x1=0.10): –417.0 cm^3·mol^–1
δx1,3 (preferential solvation parameter by NMP) ([2]; x1=0.10): −3.19 × 10^–2
100 δx1,3 (preferential solvation parameter by NMP) ([2]; x1=0.15): –0.64
D (derivative of Gibbs energy of transfer vs x1) ([2]; x1=0.15): –51.33 kJ·mol^–1
G1,3 (Kirkwood–Buff integral) ([2]; x1=0.15): –513.2 cm^3·mol^–1
G2,3 (Kirkwood–Buff integral) ([2]; x1=0.15): –484.4 cm^3·mol^–1
100 δx1,3 (preferential solvation parameter by NMP) ([2]; x1=0.20): 1.92
D (derivative of Gibbs energy of transfer vs x1) ([2]; x1=0.20): –45.42 kJ·mol^–1
G1,3 (Kirkwood–Buff integral) ([2]; x1=0.20): –438.6 cm^3·mol^–1
G2,3 (Kirkwood–Buff integral) ([2]; x1=0.20): –519.2 cm^3·mol^–1
100 δx1,3 (preferential solvation parameter by NMP) ([2]; x1=0.25): 3.70
D (derivative of Gibbs energy of transfer vs x1) ([2]; x1=0.25): –39.89 kJ·mol^–1
G1,3 (Kirkwood–Buff integral) ([2]; x1=0.25): –378.9 cm^3·mol^–1
G2,3 (Kirkwood–Buff integral) ([2]; x1=0.25): –532.6 cm^3·mol^–1
100 δx1,3 (preferential solvation parameter by NMP) ([2]; x1=0.30): 4.75
D (derivative of Gibbs energy of transfer vs x1) ([2]; x1=0.30): –34.76 kJ·mol^–1
G1,3 (Kirkwood–Buff integral) ([2]; x1=0.30): –332.9 cm^3·mol^–1
G2,3 (Kirkwood–Buff integral) ([2]; x1=0.30): –533.5 cm^3·mol^–1
100 δx1,3 (preferential solvation parameter by NMP) ([2]; x1=0.35): 5.27
D (derivative of Gibbs energy of transfer vs x1) ([2]; x1=0.35): –30.04 kJ·mol^–1
G1,3 (Kirkwood–Buff integral) ([2]; x1=0.35): –298.0 cm^3·mol^–1
G2,3 (Kirkwood–Buff integral) ([2]; x1=0.35): –527.4 cm^3·mol^–1
δx1,3 (preferential solvation parameter by NMP) ([2]; x1=0.40 (maximum)): 5.41 × 10^–2
100 δx1,3 (preferential solvation parameter by NMP) ([2]; x1=0.40): 5.41
D (derivative of Gibbs energy of transfer vs x1) ([2]; x1=0.40): –25.73 kJ·mol^–1
G1,3 (Kirkwood–Buff integral) ([2]; x1=0.40): –271.3 cm^3·mol^–1
G2,3 (Kirkwood–Buff integral) ([2]; x1=0.40): –517.0 cm^3·mol^–1

Source: article PMC9609070 (ACS Omega, 2022)
